From ChEMBL document CHEMBL4229367, “Identification of multi-target inhibitors of leukotriene and prostaglandin E2 biosynthesis by structural tuning of the FLAP inhibitor BRP-7” (Eur J Med Chem, 2018) come the findings set out here.

In experiment [1] the target is T1, Prostaglandin E synthase (Homo sapiens) (UniProt O14684).
T1 sequence (whole entry): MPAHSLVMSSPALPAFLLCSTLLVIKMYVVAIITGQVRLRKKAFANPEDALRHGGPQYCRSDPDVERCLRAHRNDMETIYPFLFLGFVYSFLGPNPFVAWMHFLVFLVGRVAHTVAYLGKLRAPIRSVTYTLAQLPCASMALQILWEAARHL
As to the kind of experiment: Inhibition of mPGES1 in IL-1beta-stimulated human A549 cell microsomal fractions assessed as reduction in PGE2 production at 3 uM preincubated for 15 mins followed by PGH2 substrate addition and measured after 1 min by RP-HPLC analysis relative to control.

For experiment [2], the target named is T2, Arachidonate 5-lipoxygenase-activating protein (Homo sapiens) (UniProt P20292).
T2 sequence (whole entry): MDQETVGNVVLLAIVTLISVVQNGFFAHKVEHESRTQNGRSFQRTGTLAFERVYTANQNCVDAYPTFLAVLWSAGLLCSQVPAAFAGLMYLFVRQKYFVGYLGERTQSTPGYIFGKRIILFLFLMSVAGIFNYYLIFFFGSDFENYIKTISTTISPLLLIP
As to the kind of experiment: Inhibition of FLAP in A23187-stimulated human neutrophils assessed as remaining enzyme activity by measuring 5-LO product formation at 0.1 uM preincubated for 15 mins followed by A23187 and arachidonic acid addition and measured after 10 mins by UV based RP-HPLC analysis (reference value: 100%).

Experiment [3] addresses T3, Arachidonate 5-lipoxygenase-activating protein (Homo sapiens, UniProt P20292).
T3 sequence (P20292 whole entry): T2 sequence (whole entry)
As to the kind of experiment: Inhibition of FLAP in A23187-stimulated human neutrophils assessed as reduction in 5-LO product formation preincubated for 15 mins followed by A23187 and arachidonic acid addition and measured after 10 mins by UV based RP-HPLC analysis.

The target in experiment [4] is T2, Arachidonate 5-lipoxygenase-activating protein (Homo sapiens). As to the kind of experiment: Inhibition of FLAP in A23187-stimulated human neutrophils assessed as remaining enzyme activity by measuring 5-LO product formation at 1 uM preincubated for 15 mins followed by A23187 and arachidonic acid addition and measured after 10 mins by UV based RP-HPLC analysis (reference value: 100%).

The target is the same in experiment [5]. As to the kind of experiment: Inhibition of FLAP in A23187-stimulated human neutrophils assessed as remaining enzyme activity by measuring 5-LO product formation at 10 uM preincubated for 15 mins followed by A23187 and arachidonic acid addition and measured after 10 mins by UV based RP-HPLC analysis (reference value: 100%).

Broadly, the inhibition is the percentage by which the read-out fell short of the control. For orientation: IC50 means the concentration needed to halve the response being measured.

For the molecule `CC(C)Cc1ccc(C(C)c2nc3cc(-c4cccc(C(=O)O)c4)ccc3n2Cc2ccccc2Cl)cc1` (stereo not drawn), the inhibition in experiment [1] was above 50%. For the same molecule, the Activity in experiment [2] amounted to 33%; in experiment [4], 0%. Further, in experiment [3], the IC50 turned out to be 74 nM.
On to `CC(C)Cc1ccc(C(C)c2nc3cc(-c4nnco4)ccc3n2Cc2ccccc2Cl)cc1` (stereo not drawn), for which the inhibition in experiment [1] is below 50%. The results for the Activity in experiment [2] and in experiment [4] were 63.1% and 0.45%, respectively. Moreover, the concentration for half-maximal inhibition (IC50) in experiment [3] came to 90 nM.
`CC(C)Cc1ccc(C(C)c2nc3cc(-c4ccccc4C(=O)O)ccc3n2Cc2ccccc2Cl)cc1` (stereo not drawn): the inhibition in experiment [1] is above 50%. In addition, the Activity was determined as 104% in experiment [2] and 65% in experiment [4]. Also, the IC50 in experiment [3] was 1100 nM.
For `N#Cc1ccc2c(c1)nc(CCc1ccc(-c3cnc(N)nc3)cc1)n2Cc1ccccc1Cl`, in that order: below 50%, 85.5%, 8.3% and 370 nM.
For `CC(C)Cc1ccc(C(C)c2nc3cc(-c4noc(=O)[nH]4)ccc3n2Cc2ccccc2Cl)cc1` (stereo not drawn) the same measures were above 50%, 87.6%, 0.67% and 270 nM.
In the case of `Cc1nc(-c2ccc3c(c2)nc(C(C)c2ccc(CC(C)C)cc2)n3Cc2ccccc2Cl)no1` (stereo not drawn), the figures for the Activity in experiment [2] and in experiment [4] were 79% and 1.9%, respectively. The IC50 in experiment [3] came to 180 nM.
Consider `N#Cc1ccc2c(c1)nc(CCc1ccc(-c3cnc(N)cn3)cc1)n2Cc1ccccc1Cl`, for which the results for the Activity in experiment [2] and in experiment [4] were 72.7% and 3.5%, respectively. In experiment [3], the half-inhibitory concentration (IC50) worked out at 260 nM.
For the molecule `CC(C)Cc1ccc(C(C)c2nc3cc(-c4nc(C(=O)O)cs4)ccc3n2Cc2ccccc2Cl)cc1` (stereo not drawn), in experiment [1], the inhibition was above 50%. Besides, the Activity in experiment [2] turned out to be 72.7%; in experiment [4], 1.06%. In experiment [3], the IC50 was 150 nM.
For `CC(Cc1ccc(-c2cnc(N)nc2)cc1)c1nc2cc(C#N)ccc2n1Cc1ccccc1Cl` (stereo not drawn), in that order: below 50%, 84.1%, 4.2% and 420 nM.
As for `N#Cc1ccc2c(c1)nc(CCc1ccc(-c3ccc(N)nn3)cc1)n2Cc1ccccc1Cl`, the Activity amounted to 85.6% in experiment [2] and 25.6% in experiment [4]. Further, the IC50 in experiment [3] came to 660 nM.
For `CC(c1ccc(CC(C)(C)C)cc1)c1nc2cc(C#N)ccc2n1Cc1ccccc1Cl` (stereo not drawn), in that order: 117%, 51.5% and 1700 nM.
Turning to `C=C(Cc1ccc(-c2cnc(N)nc2)cc1)c1nc2cc(C#N)ccc2n1Cc1ccccc1Cl`, the IC50 in experiment [3] turned out to be 370 nM.
For the molecule `CC(C)Cc1ccc(C(C)c2nc3cc(OC(C)(C)C(=O)O)ccc3n2Cc2ccccc2Cl)cc1` (stereo not drawn), in experiment [1], the inhibition was above 50%. For the same molecule, the Activity came out at 75.9% in experiment [2] and 5.47% in experiment [4]. The IC50 in experiment [3] amounted to 200 nM.
For `CC(C)Cc1ccc(C(C)c2nc3cc(S(N)(=O)=O)ccc3n2Cc2ccccc2Cl)cc1` (stereo not drawn), in that order: above 50%, 77.8%, 16.8% and 280 nM.
Take `N#Cc1ccc2c(c1)nc(NCc1ccc3[nH]ccc3c1)n2Cc1ccccc1Cl`: the figures for the Activity in experiment [2], in experiment [5] and in experiment [4] were 92.3%, 44% and 84.7%, respectively. The IC50 in experiment [3] is 3800 nM.
`CC(C)Oc1ccc(-c2nc3cc(C#N)ccc3n2Cc2ccccc2Cl)cc1`: the Activity is 93.7% in experiment [2] and 68.4% in experiment [4].
As for `CC(C)CCc1ccc(C(C)c2nc3cc(C#N)ccc3n2Cc2ccccc2Cl)cc1` (stereo not drawn), the Activity in experiment [2] turned out to be 118%; in experiment [5], 66%; in experiment [4] it was 87.2%. Also, in experiment [3], the IC50 came out at 18000 nM.
Regarding `CC(C)Cc1ccc(C(C)c2nc3cc(C(=O)O)ccc3n2Cc2ccccc2Cl)cc1` (stereo not drawn), the inhibition in experiment [1] is above 50%. Also, the figures for the Activity in experiment [2] and in experiment [4] were 71.1% and 0%, respectively. Further, the IC50 in experiment [3] was found to be 280 nM.
For the molecule `CC(C)Cc1ccc(C(C)c2nc3cc(C(N)=S)ccc3n2Cc2ccccc2Cl)cc1` (stereo not drawn), the results for the Activity in experiment [2] and in experiment [4] were 63.1% and 0.45%, respectively. Besides, the IC50 in experiment [3] was determined as 160 nM.
Turning to `CC(C)Cc1ccc(C(C)c2nc3cc(C#N)ccc3n2Cc2ccccc2Cl)cc1` (stereo not drawn), the inhibition in experiment [1] was above 50%.
`N#Cc1ccc2c(c1)nc(NCCc1c[nH]c3ccccc13)n2Cc1ccccc1Cl`: the Activity amounted to 97.1% in experiment [2], 63% in experiment [5] and 99.2% in experiment [4]. For the same molecule, in experiment [3], the IC50 came out at 8800 nM.
With `CC(C)Cc1ccc(C(C)c2nc3c(CCC(=O)O)cccc3n2Cc2ccccc2Cl)cc1` (stereo not drawn), the inhibition in experiment [1] is above 50%. The Activity in experiment [2] came out at 85%; in experiment [4], 1%. Further, in experiment [3], the IC50 was 190 nM.
With `CCC(C)c1ccc(C(C)c2nc3cc(C#N)ccc3n2Cc2ccccc2Cl)cc1` (stereo not drawn), the Activity in experiment [2] was 92.1%; in experiment [4], 33.6%. In experiment [3], the IC50 was 700 nM.
For `CC(C)Cc1ccc(C(C)c2nc3cc(-c4nnn[nH]4)ccc3n2Cc2ccccc2Cl)cc1` (stereo not drawn), the inhibition in experiment [1] was above 50%. The Activity was 90.2% in experiment [2] and 0% in experiment [4]. Moreover, the 50% inhibitory concentration (IC50) in experiment [3] was 320 nM.
As for `CC(C)Cc1ccc(C(C)c2nc3cc(-c4n[nH]c(=O)o4)ccc3n2Cc2ccccc2Cl)cc1` (stereo not drawn), the Activity in experiment [2] amounted to 40.5%; in experiment [4] it was 0.5%. The IC50 in experiment [3] came to 100 nM.
For `N#Cc1ccc2c(c1)nc(CCc1ccc(-c3ccc(N)nc3)cc1)n2Cc1ccccc1Cl`, in that order: 76.1%, 1.4% and 250 nM.
With `CC(C)Cc1ccc(C(C)c2nc3cc(OCC(=O)O)ccc3n2Cc2ccccc2Cl)cc1` (stereo not drawn), the inhibition in experiment [1] is above 50%. The Activity in experiment [2] was 67.3%; in experiment [4] it was 6.38%. Further, the IC50 in experiment [3] was 180 nM.
As to `CC(C)Cc1ccc(C(C)c2nc3c(C(=O)O)cccc3n2Cc2ccccc2Cl)cc1` (stereo not drawn), the Activity in experiment [2] and in experiment [4] was 85% each time. Besides, the IC50 in experiment [3] was found to be 400 nM.
As for `CC(C)Cc1ccc(C(C)c2nc3cc(C(N)=O)ccc3n2Cc2ccccc2Cl)cc1` (stereo not drawn), the Activity in experiment [2] came out at 64%; in experiment [4], 0%. The IC50 in experiment [3] worked out at 130 nM.
As to `CC(C)Cc1ccc(-c2nc3cc(C#N)ccc3n2Cc2ccccc2Cl)cc1`, the results for the Activity in experiment [2] and in experiment [4] were 93% and 74.3%, respectively.
On to `CC(C)Cc1ccc(C(C)c2nc3cc(CC(=O)O)ccc3n2Cc2ccccc2Cl)cc1` (stereo not drawn), for which, in experiment [1], the inhibition was above 50%. In addition, the figures for the Activity in experiment [2] and in experiment [4] were 91.4% and 16.1%, respectively. In addition, the IC50 in experiment [3] stood at 450 nM.
For the molecule `N#Cc1ccc2c(c1)nc(NCc1ccc3cc[nH]c3c1)n2Cc1ccccc1Cl`, the figures for the Activity in experiment [2], in experiment [5] and in experiment [4] were 93.6%, 84% and 98.5%, respectively. Also, the IC50 in experiment [3] is above 10000 nM.
